Earlier results as cited in patent publication US20080077374A1, “Method for predicting biological, biochemical, biophysical or pharmacological characteristics of a substance” (priority 2006, published 2008).
Read-outs that look alike come from different tables or passages of the source.

Key:
male Sprague Dawley rats = settings: for Diagnosis cc: clinical chemistry; for Diagnosis histo: histopathology; for Main target: main toxicity target; for observed severity of histological lesions: liver, labelled by COMET1 study number
HanWistar rats = HanWistar rats (study R12)
[1] = SpragueDawley rats, refinement of the principal toxicity

| Molecule | Diagnosis cc (male Sprague Dawley rats; SpragueDawley rats) | Diagnosis histo (male Sprague Dawley rats; SpragueDawley rats) | Main target (male Sprague Dawley rats; SpragueDawley rats) | observed severity of histological lesions (male Sprague Dawley rats) | 2nd toxicity (male Sprague Dawley rats; rat, in vivo) | Subclass/Indication (male Sprague Dawley rats; SpragueDawley rats) | Tox class (male Sprague Dawley rats; SpragueDawley rats, highest dose level, pathology at 48 h post dose, assumed organ toxicity class) | 2nd toxicity (male Sprague Dawley rats; [1]) | 2nd toxicity (HanWistar rats) | Subclass/Indication (HanWistar rats) | Diagnosis cc (HanWistar rats; clinical chemistry) | Diagnosis histo (HanWistar rats; histopathology) | Main target (HanWistar rats; main toxicity target) |
| --- | --- | --- | --- | --- | --- | --- | --- | --- | --- | --- | --- | --- | --- |
| S=C=Nc1cccc2ccccc12 [ANIT] | + | 2bil | Hepatotoxic | no or minimal liver lesions |  |  |  |  |  |  |  |  |  |
| CC(=O)Nc1nnc(S(N)(=O)=O)s1 [Acetazolamide] |  |  |  |  | Papilla |  |  |  |  |  |  |  |  |
| Cl.N [Ammonium Chloride] | + | 0 | Kidney |  |  | Non-Toxic | ntx | Metabolic |  |  |  |  |  |
| CCOC(=O)C(C)(C)Oc1ccc(Cl)cc1 [Clofibrate] | + | 9sub | Hepatotoxic | no or minimal liver lesions | Peroxisome | Toxicant |  |  |  |  |  |  |  |
| CN(C)N=O [Di-methylnitrosamin] | + | 2 | Hepatotoxic | marked liver lesions |  | Toxicant |  | Direct reaction |  |  |  |  |  |
| NN [Hydrazine] | + | 7 | Hepatotoxic |  |  | Toxicant |  | Steatosis | Steatosis | Toxicant | + | 7 | Hepatotoxic |
| O=C(O)/C=C\C(=O)O [Maleic acid] |  |  |  |  | Proximal |  |  |  |  |  |  |  |  |
| [Cl][Hg][Cl] [Mercury Chloride] | + | 3 | Nephrotoxic |  |  | Toxicant |  | Proximal |  |  |  |  |  |
| CN(Cc1cnc2nc(N)nc(N)c2n1)c1ccc(C(=O)N[C@@H](CCC(=O)O)C(=O)O)cc1 [Methotrexate] | − | 1hea | Hemotoxic |  | Liver & kidney | Toxicant |  |  |  |  |  |  |  |
| CO[C@@]12[C@H](COC(N)=O)C3=C(C(=O)C(C)=C(N)C3=O)N1C[C@@H]1N[C@@H]12 [Mitomycin] |  | 1hae |  |  | Tubules, blood |  |  |  |  |  |  |  |  |
| CNC=O [N-methylformamid] | + | 2 | Hepatotoxic |  |  | Toxicant |  | Direct reaction |  |  |  |  |  |
| CN[C@H](CC(C)C)C(=O)N[C@H]1C(=O)N[C@@H](CC(N)=O)C(=O)N[C@H]2C(=O)N[C@H]3C(=O)N[C@H](C(=O)N[C@H](C(=O)O)c4cc(O)cc(O)c4-c4cc3ccc4O)[C@H](O)c3ccc(c(Cl)c3)Oc3cc2cc(c3O[C@@H]2O[C@H](CO)[C@@H](O)[C@H](O)[C@H]2O[C@H]2C[C@](C)(N)[C@H](O)[C@H](C)O2)Oc2ccc(cc2Cl)[C@H]1O [Vancomycin] | + | 3reg | Nephrotoxic |  |  | Toxicant |  | Proximal |  |  |  |  |  |
| Gentamicin | + | 3sub | Nephrotoxic |  |  | Toxin |  | Proximal |  |  |  |  |  |
